We go through 25 compounds from patent US20210238162A1, “CHEMICAL COMPOUNDS” (GlaxoSmithKline Intellectual Property Development Limited, priority 2015, published 2021).

Molecules are shown by their SMILES. Where two headings read alike, the source gives them in different places. Where only a bound is given, the exact number is not on record here.

In the assay the target is T1, haematopoietic prostaglandin D synthase (H-PGDS) (Homo sapiens, UniProt O60760).
T1 construct: Full length human H-PGDS cDNA (Invitrogen Ultimate ORF IOH13026) was amplified by PCR; made in house; host or cells: E. coli BL21 (DE3*), vector pET22b+
The experiment in a line: H-PGDS RapidFire High Throughput Mass Spectrometry Assay. Type of assay: biochemical. In a few lines:
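PGH2 (~10 μM burst) generated in situ from arachidonic acid by FLAG-tagged human COX-2 (Sf9-expressed), then converted to PGD2 by full-length human His-tagged H-PGDS from E. coli. PGD2 and PGF2α (substrate surrogate) quantified by RapidFire SPE-triple quadrupole MS; percent conversion calculated.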

Setting [1] is: H-PGDS RapidFire MS assay, mean pIC50, read-out: Potency Range (mean pIC50) (converted).

T1 sequence (O60760 whole entry): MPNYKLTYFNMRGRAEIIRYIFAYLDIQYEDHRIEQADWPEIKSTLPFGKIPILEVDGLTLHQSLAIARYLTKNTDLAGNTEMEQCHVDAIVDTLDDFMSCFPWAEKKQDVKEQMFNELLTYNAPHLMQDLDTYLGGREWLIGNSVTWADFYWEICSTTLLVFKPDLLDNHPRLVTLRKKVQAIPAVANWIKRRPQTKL

In the case of `C#CCOC[C@H]1CC[C@H](NC(=O)c2cnc3cc(OC(F)F)c(F)cc3c2)CC1` [Example 101, 7-(Difluoromethoxy)-6-fluoro-N-(trans-4-((prop-2-yn-1-yloxy)methyl)cyclohexyl)quinoline-3-carboxamide], the IC50 under setting [1] was below 10 nM.

On to `O=C(N[C@H]1CC[C@H](N[C@H](CO)C(F)(F)F)CC1)c1cnc2cc(OC(F)F)c(Br)cc2c1` [Example 155, 6-Bromo-7-(difluoromethoxy)-N-(trans-4-(((R)-1,1,1-trifluoro-3-hydroxypropan-2-yl)amino)cyclohexyl)quinoline-3-carboxamide], for which the IC50 under setting [1] was below 10 nM.

Turning to `O=C(NC1CCOCC1)c1cnc2cc(OC(F)F)c(Cl)cc2c1` [Example 148, 6-Chloro-7-(difluoromethoxy)-N-(tetrahydro-2H-pyran-4-yl)quinoline-3-carboxamide], the IC50 under setting [1] is 10 to 79.4 nM.

As for `CC(=O)c1cc2ncc(C(=O)N[C@H]3CC[C@H](C(C)(C)O)CC3)cc2cc1Cl` [Example 172, 7-Acetyl-6-chloro-N-(trans-4-(2-hydroxypropan-2-yl)cyclohexyl)quinoline-3-carboxamide], the IC50 under setting [1] is below 10 nM.

Take `O=C(N[C@@H]1CC[C@@H](NCC(F)(F)F)C1)c1cnc2cc(OC(F)F)c(F)cc2c1` [Example 64, 7-(difluoromethoxy)-6-fluoro-N-((1R,3R)-3-((2,2,2-trifluoroethyl)amino)cyclopentyl)quinoline-3-carboxamide]: the IC50 under setting [1] was 10 to 79.4 nM.

Turning to `O=C(N[C@H]1CCNC1=O)c1cnc2cc(N3CC(F)C3)c(Cl)cc2c1` [Example 169, (S)-6-Chloro-7-(3-fluoroazetidin-1-yl)-N-(2-oxopyrrolidin-3-yl)quinoline-3-carboxamide], under setting [1], the IC50 was below 10 nM.

As to `CC(C)Nc1cc2ncc(C(=O)N[C@H]3CC[C@H](C(C)(C)O)CC3)cc2cc1Cl` [Example 212, 6-Chloro-N-((trans)-4-(2-hydroxypropan-2-yl)cyclohexyl)-7-(isopropylamino)quinoline-3-carboxamide], under setting [1], the IC50 was below 10 nM.

With `CC(C)(O)[C@H]1CC[C@H](NC(=O)c2cnc3cc(N4CCC4)c(F)cc3c2)CC1` [Example 162, 7-(Azetidin-1-yl)-6-fluoro-N-(trans-4-(2-hydroxypropan-2-yl)cyclohexyl)quinoline-3-carboxamide], under setting [1], the IC50 is below 10 nM.

As to `COc1c(Cl)ccc2cc(C(=O)NC3CCN(c4nnnn4C)CC3)cnc12` [Example 31, 7-Chloro-8-methoxy-N-(1-(1-methyl-1H-tetrazol-5-yl)piperidin-4-yl)quinoline-3-carboxamide], under setting [1], the IC50 was 100 to 1000 nM.

With `CC(N[C@H]1CC[C@H](NC(=O)c2cnc3cc(OC(F)F)c(F)cc3c2)CC1)C(F)(F)F` (stereo partly drawn) [Example 57, 7-(Difluoromethoxy)-6-fluoro-N-(trans-4-((1,1,1-trifluoropropan-2-yl)amino)cyclohexyl)quinoline-3-carboxamide], under setting [1], the IC50 was 10 to 79.4 nM.

Consider `CCOC(=O)c1cnc(N2CC(NC(=O)c3cnc4cc(OC(F)F)c(F)cc4c3)C2)o1` [Example 84, Ethyl 2-(3-(7-(difluoromethoxy)-6-fluoroquinoline-3-carboxamido)azetidin-1-yl)oxazole-5-carboxylate], for which the IC50 under setting [1] is 10 to 79.4 nM.

For the compound `CC(C)(O)[C@H]1CC[C@H](NC(=O)c2cnc3cc(C(F)(F)F)ccc3c2)CC1` [Example 190, N-(trans-4-(2-Hydroxypropan-2-yl)cyclohexyl)-7-(trifluoromethyl)quinoline-3-carboxamide], the IC50 under setting [1] is 100 to 1000 nM.

In the case of `C[C@@H](N[C@H]1C[C@H](NC(=O)c2cnc3cc(OC(F)F)c(F)cc3c2)C1)C(F)F` [Example 74, 7-(Difluoromethoxy)-N-(trans-3-(((R)-1,1-difluoropropan-2-yl)amino)cyclobutyl)-6-fluoroquinoline-3-carboxamide], the IC50 under setting [1] is 10 to 79.4 nM.

As to `Cn1nnnc1N1CCC(NC(=O)c2cnc3cc(Cl)ccc3c2)CC1` [Example 109, 7-Chloro-N-(1-(1-methyl-1H-tetrazol-5-yl)piperidin-4-yl)quinoline-3-carboxamide], the IC50 under setting [1] was 100 to 1000 nM.

In the case of `CC(C)(N[C@H]1CC[C@H](NC(=O)c2cnc3cc(OC(F)F)c(F)cc3c2)CC1)C(F)(F)F` [Example 66, 7-(Difluoromethoxy)-6-fluoro-N-(trans-4-((1,1-trifluoro-2-methylpropan-2-yl)amino)cyclohexyl)quinoline-3-carboxamide], the IC50 under setting [1] was below 10 nM.

On to `CC(C)(O)[C@H]1CC[C@H](NC(=O)c2cnc3cc(F)ccc3c2)CC1` [Example 193, 7-Fluoro-N-(trans-4-(2-hydroxypropan-2-yl)cyclohexyl)quinoline-3-carboxamide], for which the IC50 (in at least one experimental run, read-out: H-PGDS pIC50 value (converted)) was 2000 nM.

As for `CCOc1ccc2cc(C(=O)N[C@H]3CC[C@H](C(C)(C)O)CC3)cnc2c1Cl` [Example 218, 8-Chloro-7-ethoxy-N-(trans-4-(2-hydroxypropan-2-yl)cyclohexyl)quinoline-3-carboxamide], the IC50 under setting [1] is 10 to 79.4 nM.

Regarding `CC(NC[C@H]1CC[C@H](NC(=O)c2cnc3cc(OC(F)F)c(F)cc3c2)CC1)C(F)F` (mixture of isomers) [Example 75, 7-(Difluoromethoxy)-N-(trans-4-(((1,1-difluoropropan-2-yl)amino)methyl)cyclohexyl)-6-fluoroquinoline-3-carboxamide], the IC50 under setting [1] was 10 to 79.4 nM.

In the case of `CCOC(=O)c1coc(N2CC(NC(=O)c3cnc4cc(OC(F)F)c(F)cc4c3)C2)n1` [Example 82, Ethyl 2-(3-(7-(difluoromethoxy)-6-fluoroquinoline-3-carboxamido)azetidin-1-yl)oxazole-4-carboxylate], the IC50 under setting [1] was 10 to 79.4 nM.

In the case of `Cn1nnnc1N1CCC(NC(=O)c2cnc3ccc(Cl)cc3c2)CC1` [Example 106, 6-Chloro-N-(1-(1-methyl-1H-tetrazol-5-yl)piperidin-4-yl)quinoline-3-carboxamide], under setting [1], the IC50 is 100 to 1000 nM.

In the case of `CC(C)(O)[C@H]1CC[C@H](NC(=O)c2cnc3cc(OC(F)(F)F)c(Cl)cc3c2)CC1` [Example 215B, 6-Chloro-N-((trans)-4-(2-hydroxypropan-2-yl)cyclohexyl)-7-(trifluoromethoxy)quinoline-3-carboxamide], the IC50 under setting [1] was below 10 nM.

Consider `N#Cc1ccc(N2CC(NC(=O)c3cnc4cc(OC(F)F)c(F)cc4c3)C2)nc1` [Example 98, N-(1-(5-Cyanopyridin-2-yl)azetidin-3-yl)-7-(difluoromethoxy)-6-fluoroquinoline-3-carboxamide], for which the IC50 under setting [1] was 10 to 79.4 nM.

In the case of `O=C(N[C@@H]1CC[C@@H](C(O)C(F)(F)F)OC1)c1cnc2cc(OC(F)F)ccc2c1` (mixture of isomers) [Example 17, Racemic 7-(Difluoromethoxy)-N-((3R,6S)-6-(2,2,2-trifluoro-1-hydroxyethyl)tetrahydro-2H-pyran-3-yl)quinoline-3-carboxamide], the IC50 under setting [1] is 10 to 79.4 nM.

On to `CC(C)(O)[C@H]1CC[C@H](NC(=O)c2cnc3cc(OC(F)F)c(Br)cc3c2)CC1` [Example 152, 6-Bromo-7-(difluoromethoxy)-N-(trans-4-(2-hydroxypropan-2-yl)cyclohexyl)quinoline-3-carboxamide], for which the IC50 under setting [1] was below 10 nM.

For the compound `O=C(NC1CCN(c2cccnc2)CC1)c1cnc2cc(OC(F)F)c(F)cc2c1` [Example 96, 7-(Difluoromethoxy)-6-fluoro-N-(1-(pyridin-3-yl)piperidin-4-yl)quinoline-3-carboxamide], the IC50 under setting [1] is 10 to 79.4 nM.
